According to patent US20170136030A1, “TREATMENT OF MALARIA USING INHIBITORS OF THE ISPD ENZYME IN THE NON-MEVALONATE PATHWAY” (Washington University, priority 2014, published 2017):

Experiments:
[1] = tested on: cultured Plasmodium falciparum parasite strain 3D7; assay: Antimalarial efficacy, parasite growth inhibition by Sybr Green staining; format: cell-based; settings: P. falciparum strain 3D7
Protocol: Each compound was tested for the ability to inhibit growth of a standard cultured Plasmodium falciparum parasite strain 3D7. Parasite growth was monitored by staining with the DNA fluorophore Sybr Green, as previously described for the antimalarial fosmidomycin in Zhang et al., Biochemistry, (2011) 50(17), 3570-3577. Each compound was evaluated for antimalarial activity over several concentrations. Nonlinear regression analysis was used to determine the concentration of half-maximal antimalarial efficacy (EC50) for each compound.

[2] = target: purified recombinant Plasmodium falciparum methylerythritol cytidyltransferase (PfIspD) enzyme (Plasmodium falciparum, UniProt Q8I273); assay: biochemical; settings: nonlinear regression
Protocol: Compounds listed in Table 1 were tested for activity against purified recombinant Plasmodium falciparum methylerythritol cytidyltransferase (PfIspD) enzyme. […] Each compound was evaluated for enzymatic inhibition over several concentrations. Nonlinear regression analysis (GraphPad Prism) was used to determine the half-maximal inhibitory concentration (IC50) for each compound.

MEP pathway = assay: Metabolic profiling of inhibitor-treated malaria parasites (LC-MS/MS); format: cell-based; settings: parasite lines treated with compound, FIG. 3
Description: A quantitative liquid chromatography-mass spectrometry method (LC-MS/MS) was developed to determine the cellular levels of metabolites in the MEP pathway. This method allows determination of whether the MEP pathway has been inhibited in malaria parasites treated with MEP pathway inhibitors of the present invention. This method has been previously used to validate the cellular metabolic effects of the known MEP pathway inhibitor fosmidomycin (Zhang et al., Biochemistry 2011).

Sequence of purified recombinant Plasmodium falciparum methylerythritol cytidyltransferase (PfIspD) enzyme (Q8I273 entry or part of it): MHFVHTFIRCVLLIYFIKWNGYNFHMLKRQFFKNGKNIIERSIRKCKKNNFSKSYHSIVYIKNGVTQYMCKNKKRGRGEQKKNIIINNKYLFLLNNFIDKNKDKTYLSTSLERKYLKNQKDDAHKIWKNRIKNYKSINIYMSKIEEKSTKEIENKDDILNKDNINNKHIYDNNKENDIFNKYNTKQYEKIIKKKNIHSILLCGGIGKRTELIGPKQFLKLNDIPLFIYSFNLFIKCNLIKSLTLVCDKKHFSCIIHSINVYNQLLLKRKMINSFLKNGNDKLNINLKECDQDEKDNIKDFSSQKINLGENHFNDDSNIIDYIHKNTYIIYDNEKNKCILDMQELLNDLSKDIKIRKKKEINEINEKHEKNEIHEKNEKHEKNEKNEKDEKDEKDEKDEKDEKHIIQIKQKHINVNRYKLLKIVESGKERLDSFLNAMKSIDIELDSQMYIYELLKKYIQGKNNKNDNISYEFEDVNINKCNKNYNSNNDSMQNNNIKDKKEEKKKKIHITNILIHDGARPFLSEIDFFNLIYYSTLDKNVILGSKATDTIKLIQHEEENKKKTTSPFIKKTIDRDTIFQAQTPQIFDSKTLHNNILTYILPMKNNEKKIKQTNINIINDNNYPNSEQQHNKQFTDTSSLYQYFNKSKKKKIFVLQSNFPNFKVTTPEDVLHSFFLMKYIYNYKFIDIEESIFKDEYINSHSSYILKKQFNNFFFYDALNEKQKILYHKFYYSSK

IC50 [2]	SMILES	EC50 [1]	cellular level of downstream MEP pathway metabolite CDP-ME (MEP pathway)	cellular level of downstream MEP pathway metabolite cMEPP (MEP pathway)
7.26 µM	O=c1c2ccccc2sn1-c1cc(S(=O)(=O)N2CCOCC2)ccc1N1CCCC1 [Compound 2, 1,2-benzisothiazol-3(2H)-one,2-[-5-(4-morpholinylsulfonyl)-2-(1-pyrrolidinyl)phenyl]]	17.1 µM	–	–
0.506 µM	Cc1ccc(-n2sc3ccccc3c2=O)cc1S(=O)(=O)N1CCOCC1 [Compound 3, 1,2-benzisothiazol-3(2H)-one,2-[4-methyl-3-(4-morpholinylsulfonyl)phenyl]]	4.96 µM	–	–
30.9 µM	O=c1c2ccccc2sn1-c1ccc(S(=O)(=O)N2CCOCC2)cc1 [Compound 4, 1,2-benzisothiazol-3(2H)-one,2-[4-(4-morpholinylsulfonyl)phenyl]]	20.8 µM	–	–
0.656 µM	O=c1c2ccccc2sn1-c1cccc(S(=O)(=O)N2CCOCC2)c1 [Compound 10, 2-(3-morpholinosulfonyl)phenylbenzo[d]isothiazol-3(2H)-one]	7.4 µM	–	–
> 200 µM	CSc1ccccc1C(=O)Nc1cccc(S(=O)(=O)N2CCOCC2)c1 [Compound 11, 2-(methylthio)-(N-((3-morpholinosulfonyl)phenyl)benzamide)]	82.6 µM	–	–
58.9 µM	Cc1nnsc1C(=O)Nc1cc(S(=O)(=O)N2CCCCC2)ccc1O [Compound 19, N-[2-hydroxy-5-(piperidine-1-sulfonyl)phenyl]-4-methyl-1,2,3-thiadiazole-5-carboxamide]	> 200 µM	–	–
1.08 µM	COc1ccc(S(=O)(=O)N2CCOCC2)cc1-n1sc2ccccc2c1=O [Compound 24, 2-(2-methoxy-5-(morpholinosulfonyl)phenyl)benzo[d]isothiazol-3(2H)-one]	8.61 µM	–	–
0.809 µM	COc1ccc(S(=O)(=O)N2CCCCC2)cc1-n1sc2ccccc2c1=O [Compound 25, 2-(2-methoxy-5-(piperidin-1-ylsulfonyl)phenyl)benzo[d]isothiazol-3(2H)-one]	14.3 µM	–	–
0.866 µM	COc1ccc(S(=O)(=O)N2CCC(F)CC2)cc1-n1sc2ccccc2c1=O [Compound 26, 2-(5-((4-fluoropiperidin-1-yl)sulfonyl)-2-methoxyphenyl)benzo[d]isothiazol-3(2H)-one]	6.11 µM	–	–
0.542 µM	COc1ccc(S(=O)(=O)N2CCCOCC2)cc1-n1sc2ccccc2c1=O [Compound 27, 2-(5-((1,4-oxazepan-4-yl)sulfonyl)-2-methoxyphenyl)benzo[d]isothiazol-3(2H)-one]	9.1 µM	–	–
1.95 µM	COc1ccc(S(=O)(=O)N2CCN(C)CC2)cc1-n1sc2ccccc2c1=O [Compound 28, 2-(2-methoxy-5-((4-methylpiperazin-1-yl)sulfonyl)phenyl)benzo[d]isothiazol-3(2H)-one]	2.47 µM	–	–
1.15 µM	COc1ccc(S(=O)(=O)N2CCNCC2)cc1-n1sc2ccccc2c1=O [Compound 36, 2-(2-methoxy-5-(piperazin-1-ylsulfonyl)phenyl)benzo[d]isothiazol-3(2H)-one]	0.97 µM	–	–
0.71 µM	O=c1c2ccccc2sn1-c1cc(S(=O)(=O)N2CCOCC2)ccc1O [Compound 37, 2-(2-hydroxy-5-(morpholinosulfonyl)phenyl)benzo[d]isothiazol-3(2H)-one]	7.59 µM	–	–
13.2 µM	O=c1c2ccccc2sn1-c1cc(S(=O)(=O)N2CCC(F)CC2)ccc1O [Compound 38, 2-(5-((4-fluoropiperidin-1-yl)sulfonyl)-2-hydroxyphenyl)benzo[d]isothiazol-3(2H)-one]	10.1 µM	–	–
5.39 µM	O=c1c2ccccc2sn1-c1cc(S(=O)(=O)N2CCCCC2)ccc1O [Compound 39, 2-(2-hydroxy-5-(piperidin-1-ylsulfonyl)phenyl)benzo[d]isothiazol-3(2H)-one]	9.21 µM	–	–
1.95 µM	O=c1c2ccccc2sn1-c1cc(S(=O)(=O)N2CCCOCC2)ccc1O [Compound 40, 2-(5-((1,4-oxazepan-4-yl)sulfonyl)-2-hydroxyphenyl)benzo[d]isothiazol-3(2H)-one]	14.6 µM	–	–
–	COc1ccc(-c2cccc(-n3sc4ccccc4c3=O)c2)cc1 [Compound 41, 2-(4′-methoxy-[1,1′biphenyl]-3-yl)benzo[d]isothiazol-3(2H)-one]	0.77 µM	significantly decreased	significantly decreased
0.29 µM	O=c1c2ccccc2sn1-c1cccc(-c2ccsc2)c1 [Compound 42, 2-(3-(thiophen-3-yl)phenyl)benzo[d]isothiazol-3(2H)-one]	2.88 µM	–	–
0.16 µM	O=c1c2ccccc2sn1-c1cccc(-c2ccc(Cl)cc2)c1 [Compound 43, 2-(4′-chloro-[1,1′biphenyl]-3-yl)benzo[d]isothiazol-3(2H)-one]	0.61 µM	–	–
0.31 µM	O=c1c2ccccc2sn1-c1cccc(-c2ccc(C(F)(F)F)cc2)c1 [Compound 44, 2-(4′-(trifluoromethyl)-[1,1′biphenyl]-3-yl)benzo[d]isothiazol-3(2H)-one]	0.45 µM	–	–
0.15 µM	COC(=O)c1cccc(-n2sc3ccccc3c2=O)c1 [Compound 45, Methyl-3-(3-oxobenzo[d]isothiazol-2(3H)-yl)benzoate]	11.7 µM	–	–
0.48 µM	O=C(O)c1cccc(-n2sc3ccccc3c2=O)c1 [Compound 46, 3-(3-oxobenzo[d]isothiazol-2(3H)-yl)benzoic acid]	> 200 µM	–	–
0.17 µM	O=c1c2ccccc2sn1-c1ccccn1 [Compound 47, 2-(pyridin-2-yl)benzo[d]isothiazol-2(3H)-one]	70 µM	–	–
2.43 µM	O=c1c2ccccc2sn1Cc1ccccc1 [Compound 48, 2-benzylbenzo[d]isothiazol-2(3H)-one]	–	–	–
0.62 µM	O=c1c2ccccc2sn1Cc1ccc(Cl)cc1 [Compound 49, 2-(4-chlorobenzyl)benzo[d]isothiazol-2(3H)-one]	17.9 µM	–	–
56.2 µM	O=c1[nH]sc2ncccc12 [Compound 50, Isothiazolo[5,4-b]pyridin-3(2H)-one]	160 µM	–	–
1.34 µM	COc1ccc(Cn2sc3ccccc3c2=O)cc1 [Compound 51, 2-(4-methoxybenzyl)benzo[d]isothiazol-2(3H)-one]	67.6 µM	–	–
1.52 µM	O=c1c2cccnc2sn1Cc1ccccc1 [Compound 52, 2-benzylisothiazolo[5,4-b]pyridin-3(2H)-one]	–	–	–
